Assay results as given in patent US20180044343A1, “BICYCLIC IMIDAZOLO DERIVATIVE” (Sumitomo Dainippon Pharma Co., Ltd., priority 2015, published 2018).

Assays:
Assay type in all cases: biochemical
PDE1C = PDE1C (Homo sapiens, UniProt Q14123); test: In vitro HTRF PDE1 inhibition assay (PDE1C); settings: 100 nM cyclic GMP
Text: (§1) An exemplary procedure for the in vitro Homogenous Time Resolved Fluorescence assay, which can be used to determine the inhibitory action of compounds of the present invention toward PDE1 or its isoforms, follows.
(§2) The HTRF PDE1 assay utilized the HTRF (Homogenous Time Resolved Fluorescence) technology, which is based on the competition between unlabeled cyclic nucleotide and cyclic nucleotide labeled with XL665 for the binding to cyclic nucleotide-specific antibody labeled with cryptate. The HTRF signal is thus inversely proportional to the concentration of cyclic nucleotide being measured. Since phosphodiesterases break down cyclic nucleotides, the HTRF signal was used to determine PDE activity.
(§3) The Cisbio cGMP HTRF assay kit (Cat no: 62GM2PEC) was utilized. Cyclic GMP was diluted to 200 nM in HTRF assay buffer (1 mM CaCl2, 10 mM MgCl2, 10 mM Tris-HCl, 0.1% BSA, pH 7.4). 10 μl of compound or DMSO was diluted in 200 nM cyclic GMP solution and added to wells of a 96 well white plate to give 100 nM cyclic GMP in 1% DMSO final concentration. PDE (1A3, 1B or 1C) was diluted to 2× working concentration in HTRF assay buffer with 2 μg/ml Calmodulin, and 10 μl was added to initiate the reaction. The plate was then incubated for 45 minutes at 27° C. d2-Labelled cyclic GMP and anti-cGMP cryptate were diluted in 50 mM phosphate buffer, 0.8 M KF, 1% Triton X100, 0.2% BSA, pH 7.0. Following incubation 10 μl d2-cGMP, then 10 μl anti cGMP cryptate were added to each well and the plate was incubated for 60 minutes at room temperature. The plate was then read on Perkin Elmer EnVision at 2 different FRET readings ex/em 340 nm/665 nm and 340 nm/615 nm.
(§4) Compounds having an IC50 of <1 μM are denoted as +++. Compounds having an IC50 of 1-10 μM are denoted as ++. Compounds having an IC50 of 10-100 μM are denoted as +.

PDE1B = PDE1B (Homo sapiens, UniProt Q01064); test: In vitro HTRF PDE1 inhibition assay (PDE1B); settings: in vitro PDE1B HTRF Assay; read-out: IC50
Sequence of PDE1B (Q01064 whole entry): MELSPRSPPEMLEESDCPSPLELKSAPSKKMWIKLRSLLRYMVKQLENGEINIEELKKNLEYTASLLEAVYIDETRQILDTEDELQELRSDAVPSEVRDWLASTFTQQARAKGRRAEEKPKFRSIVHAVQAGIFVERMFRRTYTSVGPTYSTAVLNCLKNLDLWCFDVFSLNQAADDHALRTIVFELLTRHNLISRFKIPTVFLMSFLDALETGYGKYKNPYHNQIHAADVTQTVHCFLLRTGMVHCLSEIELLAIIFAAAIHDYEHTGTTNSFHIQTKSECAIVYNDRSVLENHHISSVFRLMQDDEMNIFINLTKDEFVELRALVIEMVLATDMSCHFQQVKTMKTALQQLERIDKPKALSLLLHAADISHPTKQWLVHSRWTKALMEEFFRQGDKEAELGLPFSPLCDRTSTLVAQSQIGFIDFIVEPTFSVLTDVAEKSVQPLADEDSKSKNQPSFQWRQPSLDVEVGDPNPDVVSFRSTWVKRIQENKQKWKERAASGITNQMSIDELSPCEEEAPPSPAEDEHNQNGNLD

PDE1A3 = PDE1A3 (Homo sapiens, UniProt P54750); test: In vitro HTRF PDE1 inhibition assay (PDE1A3); settings: PDE1A3, 100 nM cyclic GMP
Text: as §1, §2, §3, §4

Row | SMILES | IC50 (PDE1C) | IC50 (PDE1B) | IC50 (PDE1A3)
1 | CCn1c(OCCc2ccccc2F)nn2c(C3CCOCC3)ncc2c1=O [Example 74] | – | < 1 µM | –
2 | CCn1c(OCC2CCC2)nn2c(C3CCOCC3)ncc2c1=O [Example 86] | – | < 1 µM | –
3 | Cc1ccc(CNc2nn3c(C(C)C)ncc3c(=O)n2C)cn1 [Example 155] | – | < 1 µM | –
4 | Cc1ccnc(CNc2nn3c(C(C)C)ncc3c(=O)n2C)c1 [Example 156] | – | < 1 µM | –
5 | CCn1c(NCc2ccccn2)nn2c(C(C)C)ncc2c1=O [Example 169] | – | < 1 µM | –
6 | CCn1c(OCC2CCCCC2)nn2c(C3CCOCC3)ncc2c1=O [Example 89] | – | < 1 µM | –
7 | CC(C)c1ncc2c(=O)[nH]c(N3CCC[C@@H]3c3ccc(Cl)cc3)nn12 [Example 125, 2-[(2R)-2-(4-chlorophenyl)pyrrolidin-1-yl]-7-(propan-2-yl)imidazo[5,1-f][1,2,4]triazin-4(3H)-one] | – | < 1 µM | –
8 | CC(C)c1ncc2c(=O)n(C)c(OCCc3ccncc3)nn12 [Example 3, 3-Methyl-7-(propan-2-yl)-2-[2-(pyridin-4-yl)ethoxy]imidazo[5,1-f][1,2,4]triazin-4(3H)-one] | – | < 1 µM | –
9 | CO[C@H]1CCN(c2nn3c(C4CCOCC4)ncc3c(=O)n2C)C1 [Example 187] | – | < 1 µM | –
10 | CCn1c(OCc2cc(F)ccc2F)nn2c(C3CCOCC3)ncc2c1=O [Example 57] | – | < 1 µM | –
11 | Cn1c(OCCC2CCC(F)(F)CC2)nn2c(C3CCOCC3)ncc2c1=O [Example 39] | – | < 1 µM | –
12 | Cn1c(OCc2ccncc2)nn2c(C3CCOCC3)ncc2c1=O [Example 25] | – | < 1 µM | –
13 | CC(C)c1ncc2c(=O)n(C)c(NCCc3ccccn3)nn12 [Example 151] | – | < 1 µM | –
14 | CCn1c(OCC2CCC(F)(F)CC2)nn2c(C3CCOCC3)nc(C)c2c1=O [Example 121] | – | < 1 µM | –
15 | CCn1c(NCc2ccc(OC)cn2)nn2c(C(C)C)ncc2c1=O [Example 172] | – | < 1 µM | –
16 | CCn1c(OCCCc2ccccn2)nn2c(C3CCOCC3)ncc2c1=O [Example 63] | – | < 1 µM | –
17 | Cn1c(OCC2CC(F)(F)C2)nn2c(C3CCOCC3)ncc2c1=O [Example 33] | – | < 1 µM | –
18 | COCCC1CCN(c2nn3c(C4CCOCC4)ncc3c(=O)n2C)CC1 [Example 193] | – | < 1 µM | –
19 | CC(C)c1ncc2c(=O)n(C)c(OCc3ccccn3)nn12 [Example 12] | – | < 1 µM | –
20 | CCn1c(OCc2ccc(F)cc2)nn2c(C3CCOCC3)ncc2c1=O [Example 56] | – | < 1 µM | –
21 | CC(C)c1ncc2c(=O)[nH]c(N3CCCC3c3ccc(Cl)cc3)nn12 (stereo not shown) [Example 134] | – | < 1 µM | –

More lines, now with the values ahead:

Row | IC50 (PDE1C) | IC50 (PDE1B) | IC50 (PDE1A3) | SMILES
22 | < 1 µM | < 1 µM | < 1 µM | CO[C@H]1CC[C@@H](Oc2nn3c(C4CCOCC4)ncc3c(=O)n2C)CC1 [Example 312]
23 | < 1 µM | < 1 µM | < 1 µM | COC[C@H]1CC[C@@H](Oc2nn3c(C4CCOCC4)ncc3c(=O)n2C)CC1 [Example 318]
24 | 1 to 10 µM | < 1 µM | < 1 µM | CO[C@H]1CC[C@H](Oc2nn3c(C4CCOCC4)ncc3c(=O)n2C)CC1 [Example 309]
25 | < 1 µM | < 1 µM | < 1 µM | CCn1c(OCCC2(C(F)(F)F)CC2)nn2c(C3CCOCC3)ncc2c1=O [Example 283]
26 | < 1 µM | < 1 µM | < 1 µM | CCn1c(OC[C@H]2CC[C@H](C(F)(F)F)CC2)nn2c(C3CCOCC3)ncc2c1=O [Example 251]
27 | < 1 µM | < 1 µM | < 1 µM | Cn1c(OC2CCCCC2)nn2c(C3CCOCC3)ncc2c1=O [Example 255, 2-(cyclohexyloxy)-3-methyl-7-(tetrahydro-2H-pyran-4-yl)imidazo[5,1-f][1,2,4]triazin-4(3H)-one]
28 | < 1 µM | < 1 µM | < 1 µM | CCn1c(O[C@H]2CC[C@H](C(F)(F)F)CC2)nn2c(C3CCOCC3)ncc2c1=O [Example 306]
29 | < 1 µM | < 1 µM | < 1 µM | COc1nn2c(C3CCOCC3)ncc2c(=O)n1C[C@H]1CC[C@H](OC)CC1 [Example 253]
30 | < 1 µM | < 1 µM | < 1 µM | CCO[C@H]1CC[C@@H](COc2nn3c(C4CCOCC4)ncc3c(=O)n2C)CC1 [Example 247]
31 | < 1 µM | < 1 µM | < 1 µM | CCO[C@H]1CC[C@H](Oc2nn3c(C4CCOCC4)ncc3c(=O)n2CC)CC1 [Example 315]
32 | < 1 µM | < 1 µM | < 1 µM | CCn1c(O[C@H]2CC[C@@H](OC)CC2)nn2c(C3CCOCC3)ncc2c1=O [Example 313]
33 | < 1 µM | < 1 µM | < 1 µM | Cn1c(OC2CCC(C)(C)CC2)nn2c(C3CCOCC3)ncc2c1=O [Example 302]
34 | < 1 µM | < 1 µM | < 1 µM | CCn1c(OC2CCC(F)(F)CC2)nn2c(C3CCOCC3)ncc2c1=O [Example 304, 2-[(4,4-difluorocyclohexyl)oxy]-3-ethyl-7-(tetrahydro-2H-pyran-4-yl)imidazo[5,1-f][1,2,4]triazin-4(3H)-one]
35 | < 1 µM | < 1 µM | < 1 µM | CCOC[C@H]1CC[C@H](Oc2nn3c(C4CCOCC4)ncc3c(=O)n2CC)CC1 [Example 258]
36 | < 1 µM | < 1 µM | < 1 µM | CCn1c(O[C@H]2CC[C@H](OC)CC2)nn2c(C3CCOCC3)ncc2c1=O [Example 310]
37 | – | < 1 µM | – | CCO[C@H]1CC[C@H](COc2nn3c(C4CCOCC4)ncc3c(=O)n2C2CC2)CC1 [Example 291]

Row | IC50 (PDE1C) | IC50 (PDE1B) | IC50 (PDE1A3) | SMILES
38 | < 1 µM | < 1 µM | < 1 µM | CCO[C@H]1CC[C@H](COc2nn3c(C4CCOCC4)ncc3c(=O)n2CC)CC1 [Example 249]
39 | – | < 1 µM | – | Cn1c(O[C@H]2CC[C@H](O)CC2)nn2c(C3CCOCC3)ncc2c1=O [Example 301]
40 | – | 1 to 10 µM | – | Cc1ccc(OCc2nn3c(C4CCCC4)ncc3c(=O)n2C)cc1 [Example 227]
41 | – | 10 to 100 µM | – | O=c1c2cnc(C3CCOCC3)n2nc(N2CCCC2)n1CCC1CCOCC1 [Example 215]
42 | – | < 1 µM | – | COc1nn2c(C(C)C)ncc2c(=O)n1Cc1ccccn1 [Example 262]
43 | – | < 1 µM | – | Cn1c(NCc2ccc(Cl)cn2)nn2c(C3CCC3)ncc2c1=O [Example 205]
44 | – | 1 to 10 µM | – | COCC(=O)N1CCCN(c2nn3c(C4CCOCC4)ncc3c(=O)n2C)CC1 [Example 221, 2-[4-(Methoxyacetyl)-1,4-diazepan-1-yl]-3-methyl-7-(tetrahydro-2H-pyran-4-yl)imidazo[5,1-f][1,2,4]triazin-4(3H)-one]
45 | – | < 1 µM | – | COc1nn2c(C3CCOCC3)ncc2c(=O)n1CC(C)C [Example 271]
46 | – | < 1 µM | – | Cn1c(OC2CCC(F)(F)CC2)nn2c(C3CCOCC3)ncc2c1=O [Example 303]
47 | – | 1 to 10 µM | – | O=c1c2cnc(C3CCOCC3)n2nc(N2CCCC2)n1CC1CCCCC1 [Example 213]
48 | – | 1 to 10 µM | – | Cn1c(OC[C@H]2CC[C@H](C(F)(F)F)CC2)nn2c(C3(O)CCCCC3)ncc2c1=O [Example 327, 7-(1-Hydroxycyclohexyl)-3-methyl-2-{[trans-4-(trifluoromethyl)cyclohexyl]-methoxy}imidazo[5,1-f][1,2,4]triazin-4(3H)-one]
49 | – | 10 to 100 µM | – | COc1nn2c(C3CCOCC3)ncc2c(=O)n1Cc1ccc(C#N)cc1 [Example 280]
50 | – | < 1 µM | – | CN(Cc1nn2c(C3CCCC3)ncc2c(=O)n1C)c1ccc(C(F)(F)F)cc1 [Example 235]
51 | – | < 1 µM | – | O=c1c2cnc(C3CCOCC3)n2nc(N2CCCC2)n1Cc1ccccc1 [Example 202]
52 | – | 1 to 10 µM | – | Cn1c(OC[C@H]2CC[C@H](C(F)(F)F)CC2)nn2c(C3=CCCCC3)ncc2c1=O [Example 329, 7-(Cyclohex-1-en-1-yl)-3-methyl-2-{[trans-4-(trifluoromethyl)cyclohexyl]-methoxy}imidazo[5,1-f][1,2,4]triazin-4(3H)-one]
53 | – | < 1 µM | – | Cn1c(OCCC2(C(F)(F)F)CC2)nn2c(C3CCOCC3)ncc2c1=O [Example 282]
